Measurements published in ChEMBL document CHEMBL3507680, “University of Dundee, Gates Library screen for HepG2 cell viability”.

Experiment: Human HepG2 cell viability assay in 384 well format
Assay type: toxicity, cell-based
Parameters: dose 125 nL, time 70.5 hour; cytotoxicity at 70.5 h: concentration not given beside the values
Settings: HepG2 cells, read-out: Inhibition

| SMILES | cytotoxicity at 70.5 h [%] |
| --- | --- |
| CNC(=O)[C@@H]1CN(C(=O)C2CCC2)C[C@H]1c1ccnc(N2CCCC2)n1 | -0.284 |
| Cc1noc(C)c1CN1CC[C@@H]2O[C@@H](COCC(C)C)CC[C@@H]21 | 3.11 |
| CCOc1ccc(NS(=O)(=O)c2cc(C)c(C(=O)O)s2)cc1F | -8.14 |
| Cc1cnc(N2CCc3c(cnc(C)c3C(=O)O)C2)nc1 | -2.57 |
| CCN1CCc2[nH]cnc2C12CCN(c1ncc(C(=O)O)cc1Cl)CC2 | 3.78 |
| CCN1CCOCC2(CCCN(C(=O)c3ccncc3F)C2)C1 (stereo not given) | -3.01 |
| CN(C)S(=O)(=O)N1C[C@@H]2CC[C@H](C1)N(Cc1ccc3nsnc3c1)C2 | 5.66 |
| CC(C)c1n[nH]c(C2CN(C(=O)c3cccc4cn[nH]c34)CCO2)n1 (stereo not given) | 3.42 |
| COCCN(Cc1sccc1C)C(=O)c1c(O)cccc1F | -5.43 |
| c1ccc(CN2CC[C@@H]3O[C@H](COCc4ccncc4)CC[C@@H]32)nc1 | -13 |
| O=C(Nc1cccnc1)Nc1ccn(CC(F)F)n1 | 7.38 |
| Cc1[nH]c2ccccc2c1CCNc1ncnc2c1CCNCC2 | 0.111 |
| c1nn(C2CCCCC2)cc1-c1cncn1CCCN1CCCCC1 | -0.625 |
| O=C(c1ccc2c(c1)[nH]c(=O)n2C1CCCC1)N1CCC1 | -3.8 |
| Cn1ncc(C2CC(=O)NCc3nc4sccn4c32)c1C1CC1 (stereo not given) | -12.3 |
| O=C(NCc1cccnc1)C1=NOC2(CCN(S(=O)(=O)C3CC3)C2)C1 (stereo not given) | -10.8 |
| CN(C)[C@@H]1CN(C(=O)Cc2ccccc2)[C@@H]2CCCO[C@H]12 | 15.5 |
| CN1CCC(c2cncc(C(=O)NCc3ccc(F)cc3)n2)CC1 | -5.99 |
| Cn1cccc1C(=O)N1CCCC2(CCN(CCN3CCCC3)C2=O)C1 (stereo not given) | -2.83 |
| O=S(=O)(Cc1ccc(F)cc1)NCc1nnc2n1CCC2 | -24.3 |
| OC(CN(Cc1ccccc1)Cc1cccnc1)c1cccs1 (stereo not given) | 10 |
| CCN(C(=O)CN(CC(N)=O)C(C)C)C1=CCCC1 | 22.8 |
| Cc1ccc2nc(C3CCN(CCO)CC3)nn2c1 | 21.1 |
| Cn1ccc(C(=O)N2C[C@@H]3CCN(c4cccnc4)C[C@@H]3C2)n1 | -4.89 |
| O=C(CCCn1cncn1)N1CCCC1c1nc(-c2ccccc2)no1 (stereo not given) | -1.82 |
| CC(O)c1cn(Cc2cccc(C(F)(F)F)c2)nn1 (stereo not given) | -4.44 |
| CC(C)=CCN1C[C@H]2CC[C@@H]1CN(Cc1cc(=O)[nH]c(=O)[nH]1)C2 | -3.94 |

| SMILES | cytotoxicity at 70.5 h [%] |
| --- | --- |
| O=C(Cn1ccc2ccccc21)NCc1cc(N2CCOCC2)ncn1 | -1.81 |
| CCc1ncc(C(=O)NCCNC(=O)Cc2ccc(F)cc2)s1 | -11.7 |
| Cc1noc(C)c1C(=O)Nc1ccc2ncn(CC(C)C)c(=O)c2c1 | 50.5 |
| COCc1cc(NCC(F)(F)F)n2nccc2n1 | -12.3 |
| Cc1ncsc1C(=O)NCCNc1ncccc1C#N | -8.88 |
| CCc1cc(N2CCC(NC3CN4CCC3CC4)CC2)nc(N(C)C)n1 (stereo not given) | 29.4 |
| Cc1ccc(S(=O)(=O)N2CC(C)Oc3ncccc32)c(C)c1 (stereo not given) | -4.94 |
| CN1CCC(CCNC(=O)N2CCN(Cc3ccon3)CC2)CC1 | 14.9 |
| CN(C)c1nc(NCCc2cnccn2)ncc1F | -9.9 |
| Cc1cccc(C2(CNC(C)c3nnc(C)o3)CCCC2)c1 (stereo not given) | -6.44 |
| Cc1nn(C)c2ncnc(N3CCCC(OCc4cccnc4)C3)c12 (stereo not given) | -3.45 |
| c1ccc(CCN2CCN(C3CCOC4(CCOCC4)C3)CC2)cc1 (stereo not given) | -5.08 |
| COCCNC(=O)c1cnc(C)nc1C | 34.7 |
| Cc1noc(C2CCN(C(=O)c3cccs3)CC2)n1 | -9.06 |
| CCN1CCO[C@]2(CCC[C@H]2COCc2csc(C)n2)C1 | -7.19 |
| O=C(N1CCCC1)N1C[C@@H](OCc2cccnc2)[C@H]2OCCC[C@H]21 | 12.7 |
| COc1ccc(CN2CCO[C@H]3[C@H](OCc4ccncc4)CC[C@@H]32)cc1 | 58.1 |
| CCC1c2ccsc2CCN1C(=O)NCCc1ccccn1 (stereo not given) | -9.75 |
| CC(=O)c1cn(CCC(=O)Nc2c3c(nn2C)CSC3)c2ccccc12 | 14.7 |
| Cc1cc(C(=O)N2CCn3cc(CN4CCCC4)nc3C2)no1 | -13.3 |
| O=c1c(NCCc2ccc(O)cc2)c(NCc2ccncc2)c1=O | -0.102 |
| CC(C)C(=O)NCCCn1ncc2c(Cl)cccc21 | -0.542 |
| COc1ccc2c(c1)OCC(Cc1ccc(N)cn1)C2 (stereo not given) | 2.07 |
| O=C(CN1CCN(C(=O)c2ccccc2)CC1)Nc1ncc(Br)cc1Br | -1.02 |
| Cc1nc(C2CCCCC2)sc1C(=O)O | 0.584 |
| CN(Cc1cc(C2CC2)[nH]n1)C(=O)c1ccccc1C1CCNC1 (stereo not given) | -3.91 |
| CC(O)CNC(=O)NCc1ccc(N2CCNC(=O)C2)cc1 (stereo not given) | 2.26 |

| SMILES | cytotoxicity at 70.5 h [%] |
| --- | --- |
| CN(Cc1ccc(F)cc1)[C@@H]1CN(C(=O)c2cccs2)C[C@H]1O | -17.9 |
| COc1ccc(CC(=O)N2C[C@@H]3COC[C@]3(CN(C)C)C2)cc1 | -17.9 |
| CC(=O)N(c1ccc(C)cc1)c1nc(CN2CCCCC2C)cs1 (stereo not given) | 16.8 |
| CCc1cnc(CN(C(C)=O)C2CCN(CCc3ccccc3)C2)o1 (stereo not given) | 18.3 |
| CN(Cc1ccccc1)CC(O)Cn1cnc2c(Cl)cc(Cl)cc2c1=O (stereo not given) | -9.03 |
| Cc1noc(CN(C)C2CCCN(Cc3noc(C4CC4)n3)C2)n1 (stereo not given) | -10.7 |
| Cn1ccnc1CN1CCN(CC(=O)NCc2ccccc2F)CC1 | 1.39 |
| Cc1ccc(-c2nc(C(=O)N(C)C3CCN(C)CC3)cs2)c(C)c1 | -1.64 |
| Cc1nc(CN2CCN(CC(=O)Nc3c(C)cccc3C)CC2)no1 | -5.01 |
| Cc1cc(C(=O)N2CC[C@@]3(O)CCN(S(C)(=O)=O)C[C@H]3C2)c(C)n1C | 18.6 |
| CCN(Cc1ccoc1)Cc1nc(COC)no1 | -7.42 |
| Cn1/c(=N/C(=O)CSCC(=O)Nc2nccs2)sc2ccccc21 | 2.4 |
| COc1ccc(C(=O)N2CC(=O)N(C3CCC3)CC(O)C2)c(OC)c1 (stereo not given) | -1.09 |
| O=C1NC(c2ccccc2)=N[C@@]12CC[C@@H]1CN(CC3CC3)C[C@@H]12 | -10.6 |
| CC(C)CC(=O)N1CCC(Nc2nc(O)cc(-c3ccsc3)n2)CC1 | 11.2 |
| CN(C)S(=O)(=O)NCC1OCCc2cn(CC3CCOCC3)nc21 (stereo not given) | 13.8 |
| O=C1[C@H]2CC[C@H](CN(Cc3ccccc3OC(F)F)C2)N1CC1CC1 | -7.82 |
| Cc1ccc(C(=O)N2CCC(=O)N(CC3CC3)C(C(C)C)C2)c(=O)[nH]1 (stereo not given) | 4.74 |
| CCOCCC(=O)NCCNc1nccc(C(F)(F)F)n1 | 2.23 |
| CCC(CNC(=O)CNC(C)=O)Oc1cccc(F)c1 (stereo not given) | -9.82 |
| Cc1nccn1C1CCCN(C(=O)c2cc(Cl)c3c(c2)OCO3)C1 (stereo not given) | -5.54 |
| Nc1no[n+]([O-])c1C(=O)NCc1cccnc1 | -0.714 |
| CC1CN(Cc2cnn(C)c2)CCN1c1ccc2nncn2n1 (stereo not given) | -14.4 |
| Cn1nccc1CCC(=O)N1CCCC(Cc2cccnc2)C1 (stereo not given) | -5.31 |
| CC(C)c1noc(CCCC(=O)N2CCN(Cc3ccccn3)CC2)n1 | -11.6 |
| COc1ccc(Cl)cc1CCNC(=O)N(C)CC1CCOC1 (stereo not given) | -1.13 |
